According to patent US20210322509A1, “Methods for Reducing Perinatal Morbidity and / or Mortality” (CHU SAINTE-JUSTINE, priority 2016, published 2021):
Non-standard residues stand in square brackets, D forms with d. Residues, ends and D or L forms follow the SMILES beside them. ξ: configuration not given here. dThr(3ξ) = CC(O)[C@@H](N)C(=O)O

Legend:
[1] = system: pups from IL-1β-treated dams; assay: Behavioral test (spontaneous open field activity); format: in vivo, mice; conditions: PT15
Experimental: Behavioral test (Spontaneous openfield activity). Each animal (PND15 and PND28) was gently placed in the center of the openfield, allowed to freely explore undisturbed for 10 min, after which the animal was removed, the arena cleaned with 70% ethanol and dried prior to testing the next animal. Locomotor activity was indexed as the total distance travelled (cm). The evaluator was blinded to the groups. All movements were monitored and quantified using Smart software.

[2] = system: Il1a, Il1b, Il6 and Tnfa mRNA in fetal head; assay: LPS-induced cytokine gene expression in fetal brain (qPCR); format: in vivo, C57Bl/6 mice
Experimental: FIGS. 10A to 10D show the induction of pro-inflammatory cytokines in fetal brain after maternal LPS administration is suppressed by compound 2 (cmpd2) in mice. C57Bl/6 mice were mated to males of the same genotype, administered LPS with or without compound 2 and fetal head were recovered. Relative expression of Il1a (FIG. 10A), IL6 (FIG. 10B), TNF (FIG. 10C) and IL1B (FIG. 10D) mRNAs were determined in each tissue by qPCR and normalized to Actb. Data are shown as mean±SEM relative gene expression in tissue pooled from two implantation sites with n=6 dams/group. The effect of LPS and compound 2 was analyzed by Kruskal-Wallis and Mann-Whitney U-test. #* indicates significant differences between groups, p<0.05.
Animal and treatments. To analyze effects of compound 2 on LPS-induced cytokine expression in the fetal brain after inflammatory stimulus mimicking infection in utero, pregnant female C57Bl/6 female mice (mated with C57Bl/6 males) were injected with 0.5 μg lipopolysaccharide (LPS; Salmonella typhimurium; Sigma-Aldrich®, St. Louis, Mo., USA) in 200 μl PBS i.p., or PBS control, at 1100 h on gd 16.5. Mice were immediately administered compound 2 (1 mg/kg in PBS) or vehicle control (PBS+0.1% BSA) within 5 mins of LPS injection on gd 16.5, then killed 4 h later. Brain tissues were recovered by severing the fetal head from 2 fetuses from each of […] per treatment group.
Expression of inflammatory markers. Messenger RNA (mRNA) was extracted by homogenizing tissues using ceramic beads (Mo Bio) in Trizol® (Ambion® RNA, Carlsbad Calif.). […] Primer pairs specific for published cDNA sequences were designed using Primer Express® software (Applied Biosystems®, Foster City, Calif.) to quantify Il1a, Il1b, Il6 and Tnfa mRNA. […] Data were normalized to β-actin mRNA expression and expressed as ΔΔCT using the formula mRNA level=[…]. […] Data were tested for normality using a Shapiro-Wilk test then analyzed by Kruskal-Wallis and Mann-Whitney U-test since data were not normally distributed. […]

[3] = system: pregnant C57Bl/6 mice given LPS; assay: Perinatal outcomes after maternal LPS (gestation length, perinatal survival, birth weight); format: in vivo
Experimental: The timing of birth (FIG. 11A); the number of viable pups per litter at birth (FIG. 11B); the proportion of pups surviving to one week (FIG. 11C), and birth weight at 12-24 h (FIG. 11D) were recorded (all mean±SEM). The number of treated dams in each group is shown in parentheses (n=10 per group, with n=48-57 pups weighed per group at birth) and data were analysed by ANOVA and post-hoc Sidak t-test; *P<0.05.
Animal and treatments. […] Mice were monitored via video recording until the time of parturition. Gestation length and perinatal survival (number of live pups at birth and % pups surviving to one week) were recorded. Pups were weighed at 12-24 h after birth.

[4] = LPS gd 16.5 + compound 2 1 mg/kg i.p. at 12 h intervals, 4 doses

Question: With `CC(C)C[C@@H](NC(=O)[C@@H](CCC(=O)O)NC(=O)[C@H](NC(=O)[C@H](NC(=O)[C@@H](Cc1ccc(O)cc1)NC(=O)[C@H](N)CCCNC(=N)N)C(C)O)C(C)C)C(=O)N[C@H](C)C(N)=O` (stereo partly drawn) [compound 1] (H-[dR][dY][dThr(3ξ)][dV][dE][dL][dA]-NH2) as the compound, how does the “behavior/locomotion activity (distance travelled, open field)” value [1] read?
Answer: The value was “normalization of the behavior/locomotion activity”.

Question: With `CC(C)C[C@@H](NC(=O)[C@@H](CCC(=O)O)NC(=O)[C@H](NC(=O)[C@H](NC(=O)[C@@H](Cc1ccc(O)cc1)NC(=O)[C@H](N)CCCNC(=N)N)C(C)O)C(C)C)C(=O)N[C@H](C)C(=O)O` (stereo partly drawn) [compound 2] (H-[dR][dY][dThr(3ξ)][dV][dE][dL][dA]-OH) as the compound, how does the “expression of Il1a, Il1b and Il6 in fetal head relative to PBS control” value ([2]; LPS + compound 2) read?
Answer: The value was “no change”.

Question: And the “expression of Il1a, Il1b and Il6 in fetal head relative to PBS control” value ([2]; compound 2 alone (no LPS))?
Answer: Its value is “did not significantly alter”.

Question: And the “expression of Il1a, IL6, TNF and IL1B in fetal head, reduction relative to LPS alone” value ([2]; dams given LPS 0.5 μg i.p. gd 16.5 + compound 2 1 mg/kg, 4 h later)?
Answer: The value was 40-60%.

Question: What about the “LPS-induced death in the first week of life” value [3, 4] of the same compound?
Answer: The value was “completely reversed”.

Question: What about the “LPS-induced perinatal loss (number of viable pups at birth)” value [3, 4] of the same compound?
Answer: The value was “completely reversed”.

Question: What about the “LPS-induced prematurity (gestation length)” value [3, 4] of the same compound?
Answer: Its value is “completely reversed”.

Question: What about the perinatal outcomes ([3]; compound 2 alone, in the absence of LPS) of the same compound?
Answer: The perinatal outcomes was “did not alter perinatal outcomes”.

Question: And the “pup weight at 12-24 h after birth” value ([3]; compound 2 with or without LPS treatment)?
Answer: Its value is “no significant effect”.
